Columns and labels:
Type in all cases: cell-based
CCRF-CEM = assay: NCI screen, growth of human tumor cells: Leukemia CCRF-CEM; details: for % Growth: CCRF-CEM
How it was run: (§1)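 The NCI screen tests each compound on human cancer cell lines and reports percent growth. Concentrations are given in molar units; the number of data points per compound is sixty at minimum.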

RPMI-8226 = assay: NCI screen, growth of human tumor cells: Leukemia RPMI-8226
How it was run: as §1

SR = assay: NCI screen, growth of human tumor cells: Leukemia SR; details: for % Growth: SR
How it was run: as §1

AS49/ATCC = assay: NCI screen, growth of human tumor cells: Non-Small Cell Lung AS49/ATCC; details: A549/ATCC, 10^−4 molar
How it was run: as §1

EKVX = assay: NCI screen, growth of human tumor cells: Non-Small Cell Lung EKVX; details: EKVX, 10^−4 molar
How it was run: as §1

HOP-62 = assay: NCI screen, growth of human tumor cells: Non-Small Cell Lung HOP-62; details: HOP-62, 10^−4 molar
How it was run: as §1

HOP-92 = assay: NCI screen, growth of human tumor cells: Non-Small Cell Lung HOP-92
How it was run: as §1

NCI-H226 = assay: NCI screen, growth of human tumor cells: Non-Small Cell Lung NCI-H226
How it was run: as §1

NCI-H522 = assay: NCI screen, growth of human tumor cells: Non-Small Cell Lung NCI-H522; details: NCI-H522, 10^−4 molar
How it was run: as §1

NCI-H322M = assay: NCI screen, growth of human tumor cells: Non-Small Cell Lung NCI-H322M; details: NCI-H322M, 10^−4 molar
How it was run: as §1

NCI-H23 = assay: NCI screen, growth of human tumor cells: Non-Small Cell Lung NCI-H23
How it was run: as §1

SF-295 = assay: NCI screen, growth of human tumor cells: CNS Cancer SF-295
How it was run: as §1

SNB-19 = assay: NCI screen, growth of human tumor cells: CNS Cancer SNB-19
How it was run: as §1

SF-539 = assay: NCI screen, growth of human tumor cells: CNS Cancer SF-539
How it was run: as §1

SNB-75 = assay: NCI screen, growth of human tumor cells: CNS Cancer SNB-75
How it was run: as §1

LOXIMVI = assay: NCI screen, growth of human tumor cells: Melanoma LOXIMVI; details: for % Growth: LOXIMVI
How it was run: as §1

MALME-3M = assay: NCI screen, growth of human tumor cells: Melanoma MALME-3M; details: 10^−4 molar
How it was run: as §1

SK-MEL-2 = assay: NCI screen, growth of human tumor cells: Melanoma SK-MEL-2; details: SK-MEL-2, 10^−4 molar
How it was run: as §1

SK-MEL-5 = assay: NCI screen, growth of human tumor cells: Melanoma SK-MEL-5
How it was run: as §1

UACC-62 = assay: NCI screen, growth of human tumor cells: Melanoma UACC-62
How it was run: as §1

IGROVI = assay: NCI screen, growth of human tumor cells: Ovarian Cancer IGROVI; details: IGROVI
How it was run: as §1

OVCAR-3 = assay: NCI screen, growth of human tumor cells: Ovarian Cancer OVCAR-3; details: OVCAR-3, 10^−4 molar
How it was run: as §1

OVCAR-4 = assay: NCI screen, growth of human tumor cells: Ovarian Cancer OVCAR-4; details: OVCAR-4, 10^−4 molar
How it was run: as §1

OVCAR-5 = assay: NCI screen, growth of human tumor cells: Ovarian Cancer OVCAR-5; details: OVCAR-5, 10^−4 molar
How it was run: as §1

OVCAR-8 = assay: NCI screen, growth of human tumor cells: Ovarian Cancer OVCAR-8
How it was run: as §1

TK-10 = assay: NCI screen, growth of human tumor cells: Renal Cancer TK-10; details: TK-10, 10^−4 molar
How it was run: as §1

SN12C = assay: NCI screen, growth of human tumor cells: Renal Cancer SN12C; details: SN12C, 10^−4 molar
How it was run: as §1

UO-31 = assay: NCI screen, growth of human tumor cells: Renal Cancer UO-31; details: UO-31, 10^−4 molar
How it was run: as §1

DU-145 = assay: NCI screen, growth of human tumor cells: Prostate Cancer DU-145; details: DV-145, 10^−4 molar
How it was run: as §1

MCF 7 = assay: NCI screen, growth of human tumor cells: Breast Cancer MCF 7
How it was run: as §1

MCF7/ADR-RES = assay: NCI screen, growth of human tumor cells: Breast Cancer MCF7/ADR-RES; details: MCF7/ADR-RES (Breast Cancer), 10^−4 molar
How it was run: as §1

BT-549 = assay: NCI screen, growth of human tumor cells: Breast Cancer BT-549
How it was run: as §1

COLO205 = assay: NCI screen, growth of human tumor cells: Colon Cancer COLO205; details: COLO205, 10^−4 molar
How it was run: as §1

HCT-116 = assay: NCI screen, growth of human tumor cells: Colon Cancer HCT-116; details: HCT-116, 10^−4 molar
How it was run: as §1

HCT-15 = assay: NCI screen, growth of human tumor cells: Colon Cancer HCT-15; details: HCT-15 (Colon Cancer), 10^−4 molar
How it was run: as §1

HT29 = assay: NCI screen, growth of human tumor cells: Colon Cancer HT29; details: HT29 (Colon Cancer), 10^−4 molar
How it was run: as §1

KM12 = assay: NCI screen, growth of human tumor cells: Colon Cancer KM12; details: KM12, 10^−4 molar
How it was run: as §1

CAKI-1 = assay: NCI screen, growth of human tumor cells: Renal Cancer CAKI-1; details: CAKI-1 (Renal Cancer), 10^−4 molar
How it was run: as §1

SMILES: CC1=C(CC2S(=O)(=O)OCCOS2(=O)=O)C(=O)c2ccccc2C1=O [NSC 693874, ethylene (3-methyl-1,4-naphtho-2-quinoyl)-1,1-ethanedisulfonate]
- % Growth (CCRF-CEM; 10^−4 molar): −49%
- % Growth (CCRF-CEM; 10^−5 molar): 28%
- % Growth (RPMI-8226; RPMI-8226, 10^−4 molar): −55%
- % Growth (SR; 10^−4 molar): −45%
- % Growth (SR; 10^−5 molar): −15%
- % Growth (SR; 10^−6 molar): 9%
- % Growth (SR; 10^−7 molar): 48%
- % Growth (SR; 10^−8 molar): 79%
- % Growth (AS49/ATCC): −93%
- % Growth (EKVX): −93%
- % Growth (HOP-62): −94%
- % Growth (HOP-92; HOP-92, 10^−4 molar): −88%
- % Growth (NCI-H226; NCI-H226, 10^−4 molar): −82%
- % Growth (NCI-H226; NCI-H226, 10^−5 molar): 48%
- % Growth (NCI-H522): −69%
- % Growth (NCI-H322M): −100%
- % Growth (NCI-H23; NCI-H23, 10^−4 molar): −89%
- % Growth (NCI-H23; NCI-H23, 10^−5 molar): 62%
- % Growth (SF-295; SF-295, 10^−4 molar): −100%
- % Growth (SF-295; SF-295, 10^−5 molar): 32%
- % Growth (SNB-19; SNB-19, 10^−4 molar): −92%
- % Growth (SF-539; SF-539, 10^−4 molar): −100%
- % Growth (SF-539; SF-539, 10^−5 molar): 51%
- % Growth (SNB-75; SNB-75, 10^−4 molar): −96%
- % Growth (SNB-75; SNB-75, 10^−5 molar): −21%
- % Growth (SNB-75; SNB-75, 10^−6 molar): 6%
- % Growth (SNB-75; SNB-75, 10^−7 molar): 27%
- % Growth (SNB-75; SNB-75, 10^−8 molar): 6%
- % Growth (LOXIMVI; 10^−4 molar): −95%
- % Growth (LOXIMVI; 10^−5 molar): 35%
- % Growth (MALME-3M; MALME-3M): −78%
- % Growth (SK-MEL-2): −85%
- % Growth (SK-MEL-5; SK-MEL-5, 10^−4 molar): −100%
- % Growth (UACC-62; UACC-62, 10^−4 molar): −92%
- % Growth (UACC-62; UACC-62, 10^−5 molar): 48%
- % Growth (IGROVI; 10^−4 molar): −100%
- % Growth (IGROVI; 10^−5 molar): 52%
- % Growth (OVCAR-3): −100%
- % Growth (OVCAR-4): −89%
- % Growth (OVCAR-5): −98%
- % Growth (OVCAR-8; OVCAR-8, 10^−4 molar): −71%
- % Growth (TK-10): −100%
- % Growth (SN12C): −100%
- % Growth (UO-31): −97%
- % Growth (DU-145): −94%
- % Growth (MCF 7; MCF7, 10^−4 molar): −83%
- % Growth (MCF 7; MCF7, 10^−5 molar): 56%
- percent of growth of human tumor cells (MCF7/ADR-RES): −41%
- % Growth (BT-549; BT-549, 10^−4 molar): −100%

SMILES: CC1(C)OCC(COC(=O)C(=O)C2(Cc3ccc4c(c3)C(=O)c3ccccc3C4=O)S(=O)(=O)OCCOS2(=O)=O)O1 (centres unmarked) [NSC 737276]
- percent of growth of human tumor cells (CCRF-CEM; CCRF-CEM (Leukemia), 10^−4 molar): −38%
- percent of growth of human tumor cells (RPMI-8226; RPMI-8226 (Leukemia), 10^−4 molar): −35%
- percent of growth of human tumor cells (SR; SR (Leukemia), 10^−4 molar): 12%
- % Growth (EKVX): −81%
- % Growth (HOP-62): −84%
- percent of growth of human tumor cells (HOP-92; HOP-92 (Non-Small Cell Lung), 10^−4 molar): −47%
- percent of growth of human tumor cells (NCI-H226; NCI-H226 (Non-Small Cell Lung), 10^−4 molar): 10%
- % Growth (NCI-H522): −91%
- % Growth (NCI-H322M): −87%
- % Growth (NCI-H23; NCI-H23, 10^−4 molar): −75%
- % Growth (COLO205): −96%
- % Growth (HCT-116): −86%
- percent of growth of human tumor cells (HCT-15): −12%
- percent of growth of human tumor cells (HT29): −25%
- % Growth (KM12): −74%
- percent of growth of human tumor cells (SF-295; SF-295 (CNS Cancer), 10^−4 molar): −12%
- percent of growth of human tumor cells (SNB-19; SNB-19 (CNS Cancer), 10^−4 molar): −59%
- percent of growth of human tumor cells (SF-539; SF-539 (CNS Cancer), 10^−4 molar): −43%
- % Growth (SNB-75; SNB-75, 10^−4 molar): −87%
- percent of growth of human tumor cells (LOXIMVI; LOXIMVI (Melanoma), 10^−4 molar): −48%
- percent of growth of human tumor cells (MALME-3M; MALME-3M (Melanoma)): −50%
- % Growth (SK-MEL-2): −62%
- percent of growth of human tumor cells (SK-MEL-5; SK-MEL-5 (Melanoma), 10^−4 molar): −4%
- % Growth (UACC-62; UACC-62, 10^−4 molar): −91%
- % Growth (IGROVI; 10^−4 molar): −70%
- % Growth (OVCAR-3): −71%
- % Growth (OVCAR-4): −73%
- % Growth (OVCAR-5): −89%
- percent of growth of human tumor cells (OVCAR-8; OVCAR-8 (Ovarian Cancer), 10^−4 molar): 5%
- % Growth (TK-10): −73%
- % Growth (SN12C): −64%
- percent of growth of human tumor cells (CAKI-1): 15%
- % Growth (UO-31): −81%
- % Growth (DU-145): −81%
- percent of growth of human tumor cells (MCF 7; MCF 7 (Breast Cancer), 10^−4 molar): −59%
- percent of growth of human tumor cells (MCF7/ADR-RES): −29%
- percent of growth of human tumor cells (BT-549; BT-549 (Breast Cancer), 10^−4 molar): −49%
